The subject of data set [1] is Cardiac muscle cell. Nature of the data set: Cytotoxicity against Sprague-Dawley rat cardiomyocytes assessed as inhibition of cell growth at 10 uM treated for 50 hrs by MTT assay. Type of data set: cell-based.
Data set [2] relates to Rattus norvegicus. Description: Cardioprotective activity in ig dosed Sprague-Dawley rat model of LAD coronary artery ligation-induced ischemia/reperfusion assessed as change in myocardial structure at 10 to 40 mg/kg, ig pretreated twice a day for 3 days and measured 24 hrs post-reperfusion by hematoxylin and eosin staining based assay. Type of data set: functional, organism-based.

Data set [3] concerns Cardiac muscle cell. Description: Cytoprotective activity against OGD/reperfusion induced injury in Sprague-Dawley rat cardiomyocytes assessed as effect on cell viability at 0.1 uM pretreated for 24 hrs followed by OGD for 2 hrs and subsequent reperfusion for 24 hrs (reference value: 43.9 to 45.4 +/- 1.1 %). Type of data set: functional.
Data set [4] relates to Cardiac muscle cell. Nature of the data set: Cytoprotective activity against OGD/reperfusion induced injury in Sprague-Dawley rat cardiomyocytes assessed as effect on cell viability at 10 uM pretreated for 24 hrs followed by OGD for 2 hrs and subsequent reperfusion for 24 hrs (reference value: 43.9 to 45.4 +/- 1.1 %). The class given is functional.
Data set [5] relates to Cardiac muscle cell. Description: Cytoprotective activity against OGD/reperfusion induced injury in Sprague-Dawley rat cardiomyocytes assessed as effect on cell viability at 1 uM pretreated for 24 hrs followed by OGD for 2 hrs and subsequent reperfusion for 24 hrs (reference value: 43.9 to 45.4 +/- 1.1 %). Type of data set: functional.
Data set [6] concerns Rattus norvegicus. Nature of the data set: Cardioprotective activity in ig dosed Sprague-Dawley rat model of LAD coronary artery ligation-induced ischemia/reperfusion assessed as reduction in serum cardiac troponin1 level pretreated twice a day for 3 days and measured 24 hrs post-reperfusion. Type of data set: functional, organism-based.
Data set [7] has as its system Rattus norvegicus. Nature of the data set: Cardioprotective activity in ig dosed Sprague-Dawley rat model of LAD coronary artery ligation-induced ischemia/reperfusion assessed as as infarct size of left ventricle size pretreated twice a day for 3 days and measured 24 hrs post-reperfusion by TTC staining based assay. The class given is functional, organism-based.
For data set [8], the system named is Rattus norvegicus. Nature of the data set: Cardioprotective activity in Sprague-Dawley rat model of LAD coronary artery ligation-induced ischemia/reperfusion assessed as infarct size of left ventricle size at 40 mg/kg, ig pretreated twice a day for 3 days and measured 24 hrs post-reperfusion by TTC staining based assay (reference value: 49.1 %). The class given is functional.

The subject of data set [9] is Rattus norvegicus. Description: Cardioprotective activity in ig dosed Sprague-Dawley rat model of LAD coronary artery ligation-induced ischemia/reperfusion assessed as myocardial cell swelling at 10 to 40 mg/kg, ig pretreated twice a day for 3 days and measured 24 hrs post-reperfusion by hematoxylin and eosin staining based assay. The class given is functional, organism-based.

In data set [10] the test system is Rattus norvegicus. Nature of the data set: Cardioprotective activity in Sprague-Dawley rat model of LAD coronary artery ligation-induced ischemia/reperfusion assessed as infarct size of left ventricle size at 20 mg/kg, ig pretreated twice a day for 3 days and measured 24 hrs post-reperfusion by TTC staining based assay (reference value: 49.1 %). Type of data set: functional.

Calls of active or inactive are those of the source. The calls are words filed in the database; no cut-off is given here.

Regarding `CC1(C)CCC[C@](C)([C@H]2CC[C@]3(C)[C@@H]2[C@H](O)C[C@@H]2[C@@]4(C)Cc5c(C(=O)O)noc5C(C)(C)[C@@H]4[C@H](O)C[C@]23C)O1`, the Activity entry is “Non-Toxic” with Cardiac muscle cell [1]; 68.2% in the data set with Cardiac muscle cell [3]; 89.2% in the data set on Cardiac muscle cell [4]; 79.2% in the data set on Cardiac muscle cell [5]; “Dose-dependent effect” with Rattus norvegicus [7]; 20.5% in the data set with Rattus norvegicus [8]. Moreover, the result in the data set with Rattus norvegicus [2] and with Rattus norvegicus [9] was inactive. For the same compound, the inhibition result with Rattus norvegicus [6] is “Dose-dependent effect”.

Turning to `C[C@H](CS)C(=O)N1CCC[C@H]1C(=O)O` [CAPTOPRIL], the Activity with Rattus norvegicus [10] was 34%.

As for `CCOC(=O)c1nc2c(s1)C[C@]1(C)[C@H]3C[C@@H](O)[C@@H]4[C@@H]([C@@]5(C)CCCC(C)(C)O5)CC[C@@]4(C)[C@]3(C)CC(=O)[C@H]1C2(C)C`, the Activity result with Cardiac muscle cell [1] is reported as “Non-Toxic”; in the data set with Cardiac muscle cell [3], 59.1%; with Cardiac muscle cell [4] it was 86.6%; in the data set with Cardiac muscle cell [5], 75.3%.

On to `CC1(C)CCC[C@](C)([C@H]2CC[C@]3(C)[C@@H]2[C@H](O)C[C@@H]2[C@@]4(C)Cc5c([nH]c6ccc(F)cc56)C(C)(C)[C@@H]4C(=O)C[C@]23C)O1`, for which the Activity entry in the data set on Cardiac muscle cell [1] is “Non-Toxic”; in the data set on Cardiac muscle cell [3], 54.6%; in the data set on Cardiac muscle cell [4], 63.6%; in the data set with Cardiac muscle cell [5] it was 58.8%.

Turning to `C=CCNc1nc2c(s1)C[C@]1(C)[C@H]3C[C@@H](O)[C@@H]4[C@@H]([C@@]5(C)CCCC(C)(C)O5)CC[C@@]4(C)[C@]3(C)CC(=O)[C@H]1C2(C)C`, the Activity result in the data set with Cardiac muscle cell [1] is “Non-Toxic”; with Cardiac muscle cell [3], 61.6%; in the data set on Cardiac muscle cell [4], 77.4%; with Cardiac muscle cell [5], 70%.

For `Cc1nc2c(s1)C[C@]1(C)[C@H]3C[C@@H](O)[C@@H]4[C@@H]([C@@]5(C)CCCC(C)(C)O5)CC[C@@]4(C)[C@]3(C)CC(=O)[C@H]1C2(C)C`, the Activity result with Cardiac muscle cell [1] was “Non-Toxic”; in the data set on Cardiac muscle cell [3], 48.7%; in the data set with Cardiac muscle cell [4] it was 58.5%; in the data set on Cardiac muscle cell [5], 52.1%.

For `CC1(C)CCC[C@](C)([C@H]2CC[C@]3(C)[C@@H]2[C@H](O)C[C@@H]2[C@@]4(C)Cc5c([nH]c6c(Cl)cc(F)cc56)C(C)(C)[C@@H]4C(=O)C[C@]23C)O1`, the Activity result was “Non-Toxic” with Cardiac muscle cell [1], 52.9% in the data set with Cardiac muscle cell [3], 62.1% in the data set with Cardiac muscle cell [4] and 57.1% with Cardiac muscle cell [5].

Regarding `CC1(C)CCC[C@](C)([C@H]2CC[C@]3(C)[C@@H]2[C@H](O)C[C@@H]2[C@@]4(C)CC[C@H](O)C(C)(C)[C@@H]4[C@H](O)C[C@]23C)O1`, the Activity result is on record as “Non-Toxic” in the data set on Cardiac muscle cell [1]; 47.8% with Cardiac muscle cell [3]; 61.9% with Cardiac muscle cell [4]; 52.3% in the data set on Cardiac muscle cell [5]; 30.6% in the data set on Rattus norvegicus [8].

In the case of `CC1(C)CCC[C@](C)([C@H]2CC[C@]3(C)[C@@H]2[C@H](O)C[C@@H]2[C@@]4(C)Cc5nccnc5C(C)(C)[C@@H]4C(=O)C[C@]23C)O1`, the Activity result in the data set on Cardiac muscle cell [1] is reported as “Non-Toxic”; in the data set on Cardiac muscle cell [3], 56.4%; in the data set on Cardiac muscle cell [4] it was 71.5%; in the data set on Cardiac muscle cell [5], 64%.

Regarding `CC(C)c1nc2c(s1)C[C@]1(C)[C@H]3C[C@@H](O)[C@@H]4[C@@H]([C@@]5(C)CCCC(C)(C)O5)CC[C@@]4(C)[C@]3(C)CC(=O)[C@H]1C2(C)C`, the Activity entry is “Non-Toxic” with Cardiac muscle cell [1], 50.6% in the data set on Cardiac muscle cell [3], 66% in the data set on Cardiac muscle cell [4] and 59.5% in the data set with Cardiac muscle cell [5].

For the compound `CC1(C)CCC[C@](C)([C@H]2CC[C@]3(C)[C@@H]2[C@H](O)C[C@@H]2[C@@]4(C)Cc5c([nH]c6ccc(S(N)(=O)=O)cc56)C(C)(C)[C@@H]4C(=O)C[C@]23C)O1`, the Activity entry is on record as “Non-Toxic” in the data set with Cardiac muscle cell [1], 55.1% with Cardiac muscle cell [3], 66.3% with Cardiac muscle cell [4] and 61.5% in the data set on Cardiac muscle cell [5].

In the case of `CCOC(=O)c1noc2c1C[C@]1(C)[C@H]3C[C@@H](O)[C@@H]4[C@@H]([C@@]5(C)CCCC(C)(C)O5)CC[C@@]4(C)[C@]3(C)C[C@@H](O)[C@H]1C2(C)C`, the Activity result in the data set with Cardiac muscle cell [1] was “Non-Toxic”; in the data set with Cardiac muscle cell [3], 57.5%; in the data set on Cardiac muscle cell [4], 74.7%; in the data set on Cardiac muscle cell [5] it was 67.9%.

With `CC1(C)CCC[C@](C)([C@H]2CC[C@]3(C)[C@@H]2[C@H](O)C[C@@H]2[C@@]4(C)Cc5sc(-c6cccnc6)nc5C(C)(C)[C@@H]4C(=O)C[C@]23C)O1`, the Activity entry is on record as “Non-Toxic” in the data set on Cardiac muscle cell [1], 46.9% in the data set with Cardiac muscle cell [3], 57.2% in the data set with Cardiac muscle cell [4] and 51.3% in the data set with Cardiac muscle cell [5].

As to `CC1(C)CCC[C@](C)([C@H]2CC[C@]3(C)[C@@H]2[C@H](O)C[C@@H]2[C@@]4(C)Cc5sc(N)nc5C(C)(C)[C@@H]4C(=O)C[C@]23C)O1`, the Activity result in the data set on Cardiac muscle cell [1] was “Non-Toxic”; with Cardiac muscle cell [3], 60.2%; with Cardiac muscle cell [4] it was 77.7%; with Cardiac muscle cell [5] it was 70.2%.

Consider `CCOC(=O)c1nn(-c2ccccc2)c2c1C[C@]1(C)[C@H]3C[C@@H](O)[C@@H]4[C@@H]([C@@]5(C)CCCC(C)(C)O5)CC[C@@]4(C)[C@]3(C)C[C@@H](O)[C@H]1C2(C)C`, for which the Activity result in the data set with Cardiac muscle cell [1] is “Non-Toxic”; with Cardiac muscle cell [3] it was 51.4%; with Cardiac muscle cell [4], 63.6%; in the data set with Cardiac muscle cell [5], 56.8%.

Turning to `CC1(C)CCC[C@](C)([C@H]2CC[C@]3(C)[C@@H]2[C@H](O)C[C@@H]2[C@@]4(C)Cc5c(n[nH]c5CO)C(C)(C)[C@@H]4[C@H](O)C[C@]23C)O1`, the Activity result with Cardiac muscle cell [1] is listed as “Non-Toxic”; in the data set with Cardiac muscle cell [3], 55%; in the data set with Cardiac muscle cell [4] it was 75.7%; with Cardiac muscle cell [5], 64.6%.

With `CC1(C)CCC[C@](C)([C@H]2CC[C@]3(C)[C@@H]2[C@H](O)C[C@@H]2[C@@]4(C)Cc5c(C(=O)O)nn(-c6ccccc6)c5C(C)(C)[C@@H]4[C@H](O)C[C@]23C)O1`, the Activity result is recorded as “Non-Toxic” in the data set with Cardiac muscle cell [1], 51.2% with Cardiac muscle cell [3], 63.1% in the data set on Cardiac muscle cell [4] and 56.2% in the data set on Cardiac muscle cell [5].

As to `CC1(C)CCC[C@](C)([C@H]2CC[C@]3(C)[C@@H]2[C@H](O)C[C@@H]2[C@@]4(C)Cc5c([nH]c6ccc(Cl)cc56)C(C)(C)[C@@H]4C(=O)C[C@]23C)O1`, the Activity entry is recorded as “Non-Toxic” in the data set with Cardiac muscle cell [1], 51.7% in the data set with Cardiac muscle cell [3], 62.7% in the data set with Cardiac muscle cell [4] and 57.3% in the data set with Cardiac muscle cell [5].

`CC1(C)CCC[C@](C)([C@H]2CC[C@]3(C)[C@@H]2[C@H](O)C[C@@H]2[C@@]4(C)Cc5cnn(-c6ccc(F)cc6)c5C(C)(C)[C@@H]4[C@H](O)C[C@]23C)O1`: the Activity result in the data set on Cardiac muscle cell [1] is “Non-Toxic”; in the data set with Cardiac muscle cell [3], 56.5%; in the data set on Cardiac muscle cell [4] it was 73.2%; in the data set on Cardiac muscle cell [5] it was 65.3%.

As for `CC1(C)CCC[C@](C)([C@H]2CC[C@]3(C)[C@@H]2[C@H](O)C[C@@H]2[C@@]4(C)Cc5sc(-c6ccc(Cl)cc6)nc5C(C)(C)[C@@H]4C(=O)C[C@]23C)O1`, the Activity result is listed as “Non-Toxic” with Cardiac muscle cell [1], 49.5% in the data set with Cardiac muscle cell [3], 60.3% in the data set with Cardiac muscle cell [4] and 54.8% in the data set on Cardiac muscle cell [5].

In the case of `CC1(C)CCC[C@](C)([C@H]2CC[C@]3(C)[C@@H]2[C@H](O)C[C@@H]2[C@@]4(C)Cc5c([nH]c6ccc(OC(F)(F)F)cc56)C(C)(C)[C@@H]4C(=O)C[C@]23C)O1`, the Activity entry in the data set on Cardiac muscle cell [1] is listed as “Non-Toxic”; with Cardiac muscle cell [3] it was 64.4%; with Cardiac muscle cell [4] it was 78.4%; with Cardiac muscle cell [5], 70.8%.

The values above are taken from ChEMBL document CHEMBL4373736, “Synthesis and biological evaluation of panaxatriol derivatives against myocardial ischemia/reperfusion injury in the rat” (Eur J Med Chem, 2020).
